Test results from patent publication US20260285850A1, “SUBSTITUTED OXAZOLIDINONES AND IMIDAZOLINONES AS HERBICIDES” (FMC CORPORATION, priority 2023, published 2026).

Assays:
Assay type in all cases: in vivo
[1] = tested on: barnyardgrass (Echinochloa crus-galli); assay: Test A preemergence soil spray, visual injury rating 0-100; settings: 10 days; for Barnyardgrass plant response rating (0 to 100 scale): 1000 g ai/ha, 0 = no effect, 100 = complete control
Source text: (§1) Seeds of plant species selected from barnyardgrass (Echinochloa crus-galli), blackgrass (Alopecurus myosuroides), corn (Zea mays), foxtail, giant (giant foxtail, Setaria faberi), green foxtail (Setaria viridis), goosegrass (Eleusine indica), kochia (Bassia scoparia), oat, wild (wild oat, Avena fatua), palmer (palmer amaranth, palmer pigweed, Amaranthus palmeri), ragweed (common ragweed, Ambrosia artemisiifolia), ryegrass, Italian (italian ryegrass, Lolium multiflorum), soybean (Glycine max) and wheat (Triticum aestivum) were planted into a blend of loam soil and sand and treated preemergence with a directed soil spray using test chemicals formulated in a non-phytotoxic solvent mixture which included a surfactant.
(§2) At the same time, plants selected from these crops and weed species and also galium (catchweed bedstraw, Galium aparine) and horseweed (Erigeron canadensis) were planted in pots containing the same blend of loam soil and sand and treated with postemergence applications of test chemicals formulated in the same manner. Plants ranged in height from 2 to 10 cm and were in the one- to two-leaf stage for the postemergence treatment. Treated plants and untreated controls were maintained in a greenhouse for 10 days, after which time all treated plants were compared to untreated controls and visually evaluated for injury. Plant response ratings, summarized in Table A, are based on a 0 to 100 scale where 0 is no effect and 100 is complete control. A dash (-) response means no test result.

[2] = tested on: blackgrass (Alopecurus myosuroides); assay: as above; settings: 31 g ai/ha, 0 to 100 scale, 10 days
Source text: as §1, §2

corn (Zea mays) [3] = assay: as above; settings: 31 g ai/ha, 0 to 100 scale, 10 days
Source text: as §1, §2

kochia (Bassia scoparia) [4] = assay: as above; settings: 10 days; for Kochia plant response rating (0 to 100 scale): 1000 g ai/ha, 0 = no effect, 100 = complete control
Source text: as §1, §2

[5] = tested on: oat, wild (wild oat, Avena fatua); assay: as above; settings: 31 g ai/ha, 0 to 100 scale, 10 days
Source text: as §1, §2

[6] = tested on: palmer (palmer amaranth, palmer pigweed, Amaranthus palmeri); assay: as above; settings: 10 days; for Amaranth, Palmer / Pigweed, Palmer plant response rating (0 to 100 scale): 1000 g ai/ha, 0 = no effect, 100 = complete control
Source text: as §1, §2

[7] = tested on: ragweed (common ragweed, Ambrosia artemisiifolia); assay: as above; settings: 31 g ai/ha, 0 to 100 scale, 10 days
Source text: as §1, §2

[8] = tested on: ryegrass, Italian (italian ryegrass, Lolium multiflorum); assay: as above; settings: 10 days; for Ryegrass, Italian plant response rating (0 to 100 scale): 1000 g ai/ha, 0 = no effect, 100 = complete control
Source text: as §1, §2

soybean (Glycine max) [9] = assay: as above; settings: 31 g ai/ha, 0 to 100 scale, 10 days
Source text: as §1, §2

[10] = tested on: wheat (Triticum aestivum); assay: as above; settings: 31 g ai/ha, 0 to 100 scale, 10 days
Source text: as §1, §2

[11] = tested on: barnyardgrass (Echinochloa crus-galli); assay: Test A postemergence application, visual injury rating 0-100; settings: Postemergence; for Barnyardgrass plant response rating: 1000 g ai/ha, 0 to 100 scale
Source text: as §1, §2

[12] = tested on: blackgrass (Alopecurus myosuroides); assay: as above; settings: Postemergence; for Blackgrass plant response rating: 1000 g ai/ha, 0 to 100 scale
Source text: as §1, §2

corn (Zea mays) [13] = assay: as above; settings: Postemergence
Source text: as §1, §2

[14] = tested on: galium (catchweed bedstraw, Galium aparine); assay: as above; settings: Postemergence; for Galium plant response rating: 1000 g ai/ha, 0 to 100 scale
Source text: as §1, §2

[15] = tested on: horseweed (Erigeron canadensis); assay: as above; settings: Postemergence; for Horseweed plant response rating: 1000 g ai/ha, 0 to 100 scale
Source text: as §1, §2

kochia (Bassia scoparia) [16] = assay: as above; settings: Postemergence; for Kochia plant response rating: 1000 g ai/ha, 0 to 100 scale
Source text: as §1, §2

[17] = tested on: oat, wild (wild oat, Avena fatua); assay: as above; settings: Postemergence
Source text: as §1, §2

[18] = tested on: palmer (palmer amaranth, palmer pigweed, Amaranthus palmeri); assay: as above; settings: Postemergence
Source text: as §1, §2

[19] = tested on: ragweed (common ragweed, Ambrosia artemisiifolia); assay: as above; settings: Postemergence
Source text: as §1, §2

[20] = tested on: ryegrass, Italian (italian ryegrass, Lolium multiflorum); assay: as above; settings: Postemergence
Source text: as §1, §2

soybean (Glycine max) [21] = assay: as above; settings: Postemergence
Source text: as §1, §2

[22] = tested on: wheat (Triticum aestivum); assay: as above; settings: Postemergence
Source text: as §1, §2

[23] = tested on: green foxtail (Setaria viridis); assay: Test A preemergence soil spray, visual injury rating 0-100; settings: 1000 g ai/ha, 10 days, 0 = no effect, 100 = complete control
Source text: as §1, §2

[24] = tested on: green foxtail (Setaria viridis); assay: Test A postemergence application, visual injury rating 0-100; settings: Postemergence, 1000 g ai/ha, 0 to 100 scale, 10 days
Source text: as §1, §2

[25] = 31 g ai/ha, greenhouse 10 days, 0 no effect, 100 complete control
[26] = 125 g ai/ha, 10 days, 0 is no effect, 100 is complete control

CC1(C(=O)NC2C=CC(C(=O)NS(=O)(=O)c3ccccc3)C2)CN(c2cc(Cl)cc(Cl)c2)C(=O)O1 (centres unmarked) [Compound 86]
Barnyardgrass plant response rating ([1]; 31 g ai/ha, 0 to 100 scale): 30 | Blackgrass plant response rating [2]: 0 | Corn plant response rating (corn (Zea mays) [3]): 0 | Kochia plant response rating (kochia (Bassia scoparia) [4]; 31 g ai/ha, 0 to 100 scale): 40 | Oat, Wild plant response rating [5]: 0 | Amaranth, Palmer (Pigweed, Palmer) plant response rating ([6]; 31 g ai/ha, 0 to 100 scale): 70 | Ragweed plant response rating [7]: 10 | Ryegrass, Italian plant response rating ([8]; 31 g ai/ha, 0 to 100 scale): 0 | Soybean plant response rating (soybean (Glycine max) [9]): 0 | Wheat plant response rating [10]: 0 | Barnyardgrass plant response rating (0 to 100 scale) [11, 25]: 90 | Barnyardgrass plant response rating (0 to 100 scale) [11, 26]: 90 | Blackgrass plant response rating (0 to 100 scale) [12, 25]: 30 | Blackgrass plant response rating (0 to 100 scale) [12, 26]: 70 | Corn plant response rating (0 to 100 scale) (corn (Zea mays) [13]; [25]): 90 | Corn plant response rating (0 to 100 scale) (corn (Zea mays) [13]; [26]): 100 | Galium plant response rating (0 to 100 scale) [14, 25]: 70 | Galium plant response rating (0 to 100 scale) [14, 26]: 80 | Horseweed plant response rating (0 to 100 scale) [15, 25]: 40 | Horseweed plant response rating (0 to 100 scale) [15, 26]: 50 | Kochia plant response rating (0 to 100 scale) (kochia (Bassia scoparia) [16]; [25]): 80 | Kochia plant response rating (0 to 100 scale) (kochia (Bassia scoparia) [16]; [26]): 90 | Oat, Wild plant response rating (0 to 100 scale) [17, 25]: 60 | Oat, Wild plant response rating (0 to 100 scale) [17, 26]: 90 | Amaranth, Palmer / Pigweed, Palmer plant response rating (0 to 100 scale) [18, 25]: 90 | Amaranth, Palmer / Pigweed, Palmer plant response rating (0 to 100 scale) [18, 26]: 90 | Ragweed plant response rating (0 to 100 scale) [19, 25]: 60 | Ragweed plant response rating (0 to 100 scale) [19, 26]: 80 | Ryegrass, Italian plant response rating (0 to 100 scale) [20, 25]: 60 | Ryegrass, Italian plant response rating (0 to 100 scale) [20, 26]: 70 | Soybean plant response rating (0 to 100 scale) (soybean (Glycine max) [21]; [25]): 20 | Soybean plant response rating (0 to 100 scale) (soybean (Glycine max) [21]; [26]): 60 | Wheat plant response rating (0 to 100 scale) [22, 25]: 60 | Wheat plant response rating (0 to 100 scale) [22, 26]: 80

CC1(C(=O)NC2C=CC(C(=O)O)C2)CN(c2cc(F)cc(F)c2)C(=O)N1 (centres unmarked) [Compound 179]
Barnyardgrass plant response rating (0 to 100 scale) [1]: 100 | Foxtail, Green plant response rating (0 to 100 scale) [23]: 100 | Kochia plant response rating (0 to 100 scale) (kochia (Bassia scoparia) [4]): 100 | Amaranth, Palmer / Pigweed, Palmer plant response rating (0 to 100 scale) [6]: 60 | Ryegrass, Italian plant response rating (0 to 100 scale) [8]: 100 | Barnyardgrass plant response rating ([11]; 10 days): 100 | Blackgrass plant response rating ([12]; 10 days): 100 | Galium plant response rating ([14]; 10 days): 90 | Foxtail, Green plant response rating [24]: 90 | Horseweed plant response rating ([15]; 10 days): 80 | Kochia plant response rating (kochia (Bassia scoparia) [16]; 10 days): 90

COC(=O)C1C=CC(NC(=O)C2(C)CN(c3cc(F)cc(F)c3)C(=O)N2)C1 (centres unmarked) [Compound 180]
Barnyardgrass plant response rating (0 to 100 scale) [1]: 100 | Foxtail, Green plant response rating (0 to 100 scale) [23]: 100 | Kochia plant response rating (0 to 100 scale) (kochia (Bassia scoparia) [4]): 100 | Amaranth, Palmer / Pigweed, Palmer plant response rating (0 to 100 scale) [6]: 100 | Ryegrass, Italian plant response rating (0 to 100 scale) [8]: 100 | Barnyardgrass plant response rating ([11]; 10 days): 100 | Blackgrass plant response rating ([12]; 10 days): 90 | Galium plant response rating ([14]; 10 days): 90 | Foxtail, Green plant response rating [24]: 90 | Horseweed plant response rating ([15]; 10 days): 90 | Kochia plant response rating (kochia (Bassia scoparia) [16]; 10 days): 80
